In patent US20250161337A1, “IMMUNOSUPPRESSIVE COMPOSITION CONTAINING L-AHG” (Kyungpook National University Industry-Academic Cooperation …, priority 2022, published 2025):

Assays:
Assay type in all cases: cell-based, mouse
[1] = test system: T cells activated with immobilized anti-CD3/anti-CD28; test: [3H]-thymidine incorporation (proliferation) of G0 T cells activated with immobilized anti-CD3/anti-CD28; conditions: for effect on [3H]thymidine incorporation of activated T cells: 25 to 400 μg/mL
Protocol: (§1) Isolation of resting (G0) T lymphocytes from spleens from 4-5-month-old C57BL/6J male mice was performed by a negative selection method from splenocytes using a T cell purification column kit (R&D Systems, Minneapolis, Minn., USA). At this time, the activation of G0 T cells was performed using a modification of the method of Kim et al., wherein pretreatment with rabbit anti-hamster IgG antibody (20 μg/mL) was performed so that the surface of the culture plastic container was smoothly coated with anti-CD3 (2.0 μg/mL) and anti-CD28 (2.0 μg/mL).
To evaluate the proliferation of T cells activated by immobilized anti-CD3/anti-CD28, 1×10^5 G0 T cells and each concentration of L-AHG together with 200 μL of RPMI 1640 complete medium were added to each well of a 96-well plate coated with anti-CD3 (2.0 μg/mL) and anti-CD28 (2.0 μg/mL), and activation of the cells was initiated by culture. At 29 hours after the activation, 0.25 μCi of [^3H]-thymidine was added to each well, and the amount of [^3H]-thymidine incorporated into the DNA of proliferating T cells was quantified by a liquid scintillation counter while the cells were further cultured for 12 hours.
First, using a 96-well plate, resting T cells (1×10^5 G0 T cells/well) were stimulated and activated with immobilized anti-CD3/anti-CD28 in the presence of various concentrations (0, 12.5, 25, 50, 100, 200, and 400 μg/mL) of L-AHG, NA2, NA4, or NA6. At 29 hours after the activation, 0.25 μCi of [^3H]thymidine was added to each well, followed by further culturing for an additional 12 hours. The amount of [^3H]thymidine incorporated into DNA following the T cell proliferation that occurred during this additional culturing time was quantified with a liquid scintillation counter, thereby determining the degree of T cell proliferation that occurred in each well.

IFN-γ = IFN-γ in culture supernatant of activated T cells, ELISA; conditions: 30 h after activation
Protocol: (§2) To analyze the cell cycle of T cells activated by immobilized anti-CD3/anti-CD28 or to analyze the cytokine concentration in the culture supernatant, 3×10^6 G0 T cells and each concentration of L-AHG together with 2 mL of RPMI 1640 complete medium were added to each well of a 35-mm plate coated with anti-CD3 (2.0 μg/mL) and anti-CD28 (2.0 μg/mL), and activation of the cells was initiated by culture. At 30 hours after the activation, the culture was stopped and the cells and the culture supernatant were recovered by centrifugation.
(§3) After recovering the culture supernatant of T cells, the concentrations of IFN-γ, IL-2, IL-4 and IL-13 therein were analyzed using an ELISA kit (Mouse Uncoated Elisa Kit, Invitrogen) according to the manufacturer's instructions. […] The reaction was terminated by adding 100 μl of a reaction stop solution to each well, and the absorbances at wavelengths of 450 nm and 570 nm were measured with a Varioskan Lux Multimode Microplate Reader (Thermo Fisher Scientific). At this time, the value obtained by subtracting the absorbance measured at a wavelength of 570 nm from the absorbance measured at a wavelength of 450 nm was compared with a standard curve to determine the concentrations of cytokines present in the culture supernatant. […]

CD4 T cells = test: First cell cycle progression of activated resting CD4 T cells, nocodazole arrest, DAPI flow cytometry
Protocol: as §1, §2
(§4) Under the same culture conditions, in order for the first cell cycle progression initiated by the activation of G0 T cells to be arrested in prometaphase by nocodazole treatment, T lymphocytes were activated for 20 hours, and then nocodazole was added thereto at a concentration of 0.2 μg/mL, followed by followed by further culturing for an additional 10 hours. After completion of the culturing, the culture was centrifuged to recover the cells and the culture supernatant.
(§5) Resting (G0) T cells isolated from mouse splenocytes using a T cell purification column kit (R & D) and T cells obtained by activating G0 T cells with immobilized anti-CD3/anti-CD28 for a given period of time were subjected to anti-CD3, anti-CD4, anti-CD8, and DAPI staining.
(§6) About 5×10^5 cells were suspended in 100 μL of 1×PBS/1% FBS solution, and then 0.5 μg of anti-CD3, 0.5 μg of anti-CD4, and 0.5 μg of anti-CD8 were added thereto and allowed to react at 4° C. for 15 minutes, followed by washing twice with 1×PBS/1% FBS solution. Subsequently, the cells were fixed with 1% paraformaldehyde solution at 4° C. for 15 minutes, and the fixed cells were washed twice with 1×PBS solution and then stained with 10 μM DAPI for 15 minutes. The stained cells were analyzed with an Attune NxT flow cytometer (Thermo Fisher Scientific, Waltham, MA, USA) to determine the proportions of CD3 T cells, CD4 T cells, and CD8 T cells and the cell cycle distribution based on the increase in blue fluorescence depending on the amount of DAPI bound to intracellular DNA.
To this end, resting T cells were stimulated and activated with immobilized anti-CD3/anti-CD28, and when these cells reached the time point at which S phase started following G0 exit and G1 entry and progression, that is, when 20 hours have elapsed after the activation, the microtubule depolymerization agent nocodazole (a cell cycle-arresting agent that arrests cell cycle progression of eukaryotic cells at the prometaphase of M phase) was added to the cells, followed by further culturing for 10 hours. Through this unique experimental method, the first cell cycle initiated following the activation of resting T cells was allowed to progress through the G1, S, and G2 phases, and then arrest in the prometaphase of M phase due to microtubule damage caused by the effect of nocodazole. Then, these cells were recovered, treated and stained with fluorescently labeled anti-CD4 antibody, fluorescently labeled anti-CD8 antibody, and the DNA fluorescent staining reagent DAPI, and analyzed with a flow cytometer. As a result, the present inventors investigated how the aspect of the first cell cycle progression (G1, S, and G2/M phases), which is initiated following the activation of resting CD4 T cells and resting CD8 T cells, is affected by L-AHG.

IL-2 = IL-2 in culture supernatant of activated T cells, ELISA; conditions: 25, 50, and 100 μg/mL; 30 h after activation
Protocol: as §2, §3

IL-4 = IL-4 in culture supernatant of activated T cells, ELISA; conditions: 30 h after activation
Protocol: as §2, §3

IL-13 = IL-13 in culture supernatant of activated T cells, ELISA; conditions: 25, 50, and 100 μg/mL; 30 h after activation
Protocol: as §2, §3

CD8 T cells = test: First cell cycle progression of activated resting CD8 T cells, nocodazole arrest, DAPI flow cytometry
Protocol: as §1, §2, §4, §5, §6
To this end, resting T cells were stimulated and activated with immobilized anti-CD3/anti-CD28, and when these cells reached the time point at which S phase started following G0 exit and G1 entry and progression, that is, when 20 hours have elapsed after the activation, the microtubule depolymerization agent nocodazole (a cell cycle-arresting agent that arrests cell cycle progression of eukaryotic cells at the prometaphase of M phase) was added to the cells, followed by further culturing for 10 hours. […] Then, these cells were recovered, treated and stained with fluorescently labeled anti-CD4 antibody, fluorescently labeled anti-CD8 antibody, and the DNA fluorescent staining reagent DAPI, and analyzed with a flow cytometer. […]

[2] = 100 μg/mL, 30 h after activation, nocodazole from 20 h

SMILES: OC[C@H]1OC(O)[C@H](O)[C@@H](O[C@@H]2O[C@H]3CO[C@@H]([C@@H]2O)[C@@H]3O)[C@H]1O (stereo partly drawn) [NA2, neoagarobiose, reference compound]
- effect on [3H]thymidine incorporation of activated T cells [1]: no significant effect

SMILES: OC[C@H]1O[C@@H](O)[C@H](O)[C@@H](O[C@@H]2O[C@H]3CO[C@@H]([C@@H]2O)[C@@H]3O[C@@H]2O[C@H](CO)[C@H](O)[C@H](O[C@@H]3O[C@H]4CO[C@@H]([C@@H]3O)[C@@H]4O)[C@H]2O)[C@H]1O [NA4, neoagarotetraose, reference compound]
- effect on [3H]thymidine incorporation of activated T cells [1]: no significant effect

SMILES: O=C[C@@H](O)[C@@H]1OC[C@H](O)[C@H]1O [L-AHG, 3,6-anhydro-L-galactose]
- IFN-γ concentration in culture supernatant (IFN-γ; 25 μg/mL): hardly affected
- IFN-γ concentration in culture supernatant (IFN-γ; 25, 50, and 100 μg/mL): significantly decreased
- effect on the proliferation of activated T cells ([3H]thymidine incorporation) ([1]; 12.5 μg/ml, [3H]thymidine added 29 h after activation, 12 h further culture): no significant effect
- [3H]thymidine incorporation relative to untreated control group ([1]; 100 μg/mL): about 22%
- effect on [3H]thymidine incorporation of activated T cells [1]: inhibited [^3H]thymidine incorporation in a concentration-dependent manner
- [3H]thymidine incorporation ([1]; 200 to 400 μg/mL): significantly decreased to an unmeasurable level
- percentage of G1-phase CD4 T cells (CD4 T cells; [2]): 35.4%
- percentage of G2/M phase CD4 T cells (CD4 T cells; [2]): 8.8%
- percentage of S-phase CD4 T cells (CD4 T cells; [2]): 54.6%
- percentage of CD4 T cells remaining in the G1+S phase without entering G2/M (CD4 T cells; 100 μg/ml, 30 h after activation, nocodazole from 20 h): about 90.0%
- apoptotic cell death (proportion of apoptotic sub-G1 cells) in CD4 T cells (CD4 T cells; 25-100 μg/mL): not induced
- percentage of CD4 T cells remaining in G1 and S phases without entering G2/M (CD4 T cells; 25 to 100 μg/ml, nocodazole from 20 h): increased in a manner dependent on the concentration
- IL-2 concentration in culture supernatant (IL-2): significantly decreased
- IL-4 concentration relative to untreated control group (IL-4; 25 μg/mL): 38.5%
- IL-4 concentration in culture supernatant (IL-4; 25, 50, and 100 μg/mL): significantly decreased
- IL-13 concentration in culture supernatant (IL-13): significantly decreased
- change in the percentage of G1-phase CD8 T cells (CD8 T cells; [2]): negligible
- percentage of G2/M CD8 T cells (CD8 T cells; [2]): 41.8%
- percentage of S-phase CD8 T cells (CD8 T cells; [2]): 46.6%
- apoptotic cell death (proportion of apoptotic sub-G1 cells) in CD8 T cells (CD8 T cells; 25-100 μg/mL): not induced
- cell cycle progression after activation of resting CD8 T cells (CD8 T cells; 25 to 50 μg/mL, nocodazole from 20 h): hardly affected

SMILES: OC[C@H]1O[C@@H](O)[C@H](O)[C@@H](O[C@@H]2O[C@H]3CO[C@@H]([C@@H]2O)[C@@H]3O[C@@H]2O[C@H](CO)[C@H](O)[C@H](O[C@@H]3O[C@H]4CO[C@@H]([C@@H]3O)[C@@H]4O[C@@H]3O[C@H](CO)[C@H](O)[C@H](O[C@@H]4O[C@H]5CO[C@@H]([C@@H]4O)[C@@H]5O)[C@H]3O)[C@H]2O)[C@H]1O [NA6, neoagarohexaose, reference compound]
- effect on [3H]thymidine incorporation of activated T cells [1]: no significant effect
